The target in the assay is T1, hQ23 (HEK-293 cell line stably transfected with one of the members of the KCNQ family) (Homo sapiens, UniProt O43525+O43526).
T1 construct: expressed in transfected cells; host or cells: HEK-293, stably transfected
In words: Thallium flux assay for KCNQ channel blockers (FLIPR, BTC dye). Format: cell-based. The procedure, abridged:
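FLIPR thallium flux readout (BTC dye, 2 μM AM ester) in stably transfected KCNQ HEK-293 cells, chloride-free HEPES buffer pH 7.3, Tl2SO4 stimulus. IC50s were fitted with a single-site logistic equation across 10 points at 1:3 dilutions, defined as 50% of positive-control block; minimal active concentration meant signal ≥4 SD over DMSO controls.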

[1] abbreviates: hQ23 cells, thallium flux assay.
Where [2] appears, read: Table 2, thallium flux, HEK-293.
Where [3] appears, read: Table 3, thallium flux, HEK-293.

A word on the EC50: it is the concentration giving half of the maximal effect.

T1 sequence (O43526 whole entry): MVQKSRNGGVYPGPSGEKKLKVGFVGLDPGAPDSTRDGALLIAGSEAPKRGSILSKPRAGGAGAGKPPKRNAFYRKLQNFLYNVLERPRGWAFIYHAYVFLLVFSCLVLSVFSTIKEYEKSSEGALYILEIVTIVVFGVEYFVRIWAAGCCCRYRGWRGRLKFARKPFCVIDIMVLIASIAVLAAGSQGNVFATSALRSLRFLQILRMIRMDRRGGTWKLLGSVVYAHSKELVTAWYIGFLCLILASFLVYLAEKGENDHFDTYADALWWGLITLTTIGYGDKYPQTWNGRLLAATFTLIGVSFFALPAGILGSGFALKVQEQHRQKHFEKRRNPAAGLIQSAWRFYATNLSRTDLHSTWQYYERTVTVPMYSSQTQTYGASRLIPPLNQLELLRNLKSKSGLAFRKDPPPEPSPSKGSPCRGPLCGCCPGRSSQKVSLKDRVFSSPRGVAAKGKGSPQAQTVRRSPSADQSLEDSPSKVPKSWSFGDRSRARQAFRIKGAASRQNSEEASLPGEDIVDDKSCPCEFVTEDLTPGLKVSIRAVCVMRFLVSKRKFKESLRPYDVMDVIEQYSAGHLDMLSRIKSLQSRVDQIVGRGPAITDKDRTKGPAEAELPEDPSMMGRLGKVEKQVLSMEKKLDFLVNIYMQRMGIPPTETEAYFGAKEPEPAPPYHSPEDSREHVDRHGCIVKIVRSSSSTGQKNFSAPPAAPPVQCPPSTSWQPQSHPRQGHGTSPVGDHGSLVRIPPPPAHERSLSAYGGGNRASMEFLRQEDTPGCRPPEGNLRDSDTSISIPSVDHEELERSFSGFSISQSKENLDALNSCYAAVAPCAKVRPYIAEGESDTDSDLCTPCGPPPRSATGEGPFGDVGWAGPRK
T1 sequence (O43525 whole entry): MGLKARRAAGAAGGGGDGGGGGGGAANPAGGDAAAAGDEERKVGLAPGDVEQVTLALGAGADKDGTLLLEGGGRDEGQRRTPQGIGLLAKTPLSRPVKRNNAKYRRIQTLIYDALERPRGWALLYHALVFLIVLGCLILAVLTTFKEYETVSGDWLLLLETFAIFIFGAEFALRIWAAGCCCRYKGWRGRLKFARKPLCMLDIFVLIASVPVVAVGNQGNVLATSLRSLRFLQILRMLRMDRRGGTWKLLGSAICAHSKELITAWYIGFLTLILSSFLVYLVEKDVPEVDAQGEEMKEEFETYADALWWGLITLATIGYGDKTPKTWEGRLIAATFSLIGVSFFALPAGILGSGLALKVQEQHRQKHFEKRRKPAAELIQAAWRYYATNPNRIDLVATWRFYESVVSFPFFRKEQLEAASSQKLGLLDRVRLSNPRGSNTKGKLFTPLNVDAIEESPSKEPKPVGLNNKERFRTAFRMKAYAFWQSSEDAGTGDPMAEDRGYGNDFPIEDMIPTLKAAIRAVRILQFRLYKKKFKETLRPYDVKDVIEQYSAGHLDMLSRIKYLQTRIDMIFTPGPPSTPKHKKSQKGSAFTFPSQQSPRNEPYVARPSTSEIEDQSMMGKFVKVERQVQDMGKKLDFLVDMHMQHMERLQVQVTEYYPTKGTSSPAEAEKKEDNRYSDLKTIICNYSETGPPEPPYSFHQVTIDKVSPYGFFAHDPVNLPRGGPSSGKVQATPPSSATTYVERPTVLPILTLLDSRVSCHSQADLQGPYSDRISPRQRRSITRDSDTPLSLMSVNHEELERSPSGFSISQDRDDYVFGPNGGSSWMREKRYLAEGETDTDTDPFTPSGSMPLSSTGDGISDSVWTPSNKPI

In the case of `CCN(Cc1ccccc1)C(=O)c1cnc(NC2CCC(C)CC2)nc1C1(c2ccccc2)CCCC1` (stereo not drawn) [Example 84, 5-pyrimidinecarboxamide, N-ethyl-2-[(4-methylcyclohexyl)amino]-4-(1-phenylcyclopentyl)-N-(phenylmethyl)-], the EC50 (hQ23 cells, thallium flux) is 0.829 µM.

Under setting [1], `CN(C)CCNc1ncc(C(=O)NCc2ccc(Cl)c(Cl)c2)c(C2(c3ccc(F)cc3)CCCC2)n1` [Example 257, 5-pyrimidinecarboxamide, N-[(3,4-dichlorophenyl)methyl]-2-[[2-(dimethylamino)ethyl]amino]-4-[1-(4-fluorophenyl)cyclopentyl]-] returned an EC50 of 0.904 µM.

`CC1CCN(c2ncc(C(=O)NCc3ccc4c(c3)OCO4)c(C3(c4ccccc4)CCCC3)n2)CC1` [Example 93, 5-pyrimidinecarboxamide, N-(1,3-benzodioxol-5-ylmethyl)-2-(4-methyl-1-piperidinyl)-4-(1-phenylcyclopentyl)-]: the EC50 (hQ23 cells, thallium flux) came to 0.037 µM.

Where the note is “hQ23 cells, thallium flux”, `CC1CCC(Nc2ncc(C(=O)NCc3ccc(Cl)cc3Cl)c(C3(c4ccccc4)CCCC3)n2)CC1` (stereo not drawn) [Example 110, 5-pyrimidinecarboxamide, N-[(2,4-dichlorophenyl)methyl]-2-[(4-methylcyclohexyl)amino]-4-(1-phenylcyclopentyl)-] yielded an EC50 of 0.068 µM.

For the setting “hQ23 cells, thallium flux”, `CC1CCCN(c2ncc(C(=O)NCc3ccc4c(c3)OCO4)c(C3(c4ccc(Cl)cc4)CCCC3)n2)C1` (stereo not drawn) [Example 153, 5-pyrimidinecarboxamide, N-(1,3-benzodioxol-5-ylmethyl)-4-[1-(4-chlorophenyl)cyclopentyl]-2-(3-methyl-1-piperidinyl)-] showed an EC50 of 0.01 µM.

Under setting [1], `CC1CCCN(c2ncc(C(=O)NCc3ccc(Cl)cc3Cl)c(C3(c4ccc(F)cc4)CCCC3)n2)C1` (stereo not drawn) [Example 262, 5-pyrimidinecarboxamide, N-[(2,4-dichlorophenyl)methyl]-4-[1-(4-fluorophenyl)cyclopentyl]-2-(3-methyl-1-piperidinyl)-] returned an EC50 of 0.01 µM.

`O=C(NCc1cc(F)cc(C(F)(F)F)c1)c1cnc(N2CCCC2)nc1C1(c2ccccc2)CCCC1` [Example 124, 5-pyrimidinecarboxamide, N-[[3-fluoro-5-(trifluoromethyl)phenyl]methyl]-4-(1-phenylcyclopentyl)-2-(1-pyrrolidinyl)-] came in with an EC50 (hQ23 cells, thallium flux) of 0.24 µM.

Turning to `CC1CCN(c2ncc(C(=O)NCc3ccc(F)cc3F)c(C3(c4ccccc4)CCCC3)n2)CC1` [Example 119, 5-pyrimidinecarboxamide, N-[(2,4-difluorophenyl)methyl]-2-(4-methyl-1-piperidinyl)-4-(1-phenylcyclopentyl)-], the midpoint of the response (hQ23 cells, thallium flux), the EC50, lay at 0.122 µM.

Under setting [2], `CC1CCC(Nc2ncc(C(=O)NC(C)c3ccc(F)cc3)c(C3(c4ccccc4)CC3)n2)CC1` (stereo not drawn) [Example 49, 5-pyrimidinecarboxamide, N-[1-(4-fluorophenyl)ethyl]-2-[(4-methylcyclohexyl)amino]-4-(1-phenylcyclopropyl)-] returned an EC50 of 0.575 µM.

Turning to `CC1CCC(Nc2ncc(C(=O)NCc3cccc4ccccc34)c(C3(c4ccc(Cl)cc4)CCCC3)n2)CC1` (stereo not drawn) [Example 166, 5-pyrimidinecarboxamide, 4-[1-(4-chlorophenyl)cyclopentyl]-2-[(4-methylcyclohexyl)amino]-N-(1-naphthalenylmethyl)-], the EC50 (hQ23 cells, thallium flux) is 0.016 µM.

Consider `CC1CCN(c2ncc(C(=O)NCc3ccc(Cl)c(Cl)c3)c(C3(c4ccc(Cl)cc4)CCCC3)n2)CC1` [Example 175, 5-pyrimidinecarboxamide, 4-[1-(4-chlorophenyl)cyclopentyl]-N-[(3,4-dichlorophenyl)methyl]-2-(4-methyl-1-piperidinyl)-], for which the EC50 (hQ23 cells, thallium flux) turned out to be 0.01 µM.

For `CN(C)CCNc1ncc(C(=O)N(C)CCc2ccccc2)c(C2(c3ccc(Cl)cc3)CCC2)n1` [Example 55, 5-pyrimidinecarboxamide, 4-[1-(4-chlorophenyl)cyclobutyl]-2-[[2-(dimethylamino)ethyl]amino]-N-methyl-N-(2-phenylethyl)-], under setting [3], the EC50 stood at 0.321 µM.

Regarding `O=C(NCc1ccc(F)cc1F)c1cnc(NC2CCCC2)nc1C1(c2ccccc2)CCCC1` [Example 121, 5-pyrimidinecarboxamide, 2-(cyclopentylamino)-N-[(2,4-difluorophenyl)methyl]-4-(1-phenylcyclopentyl)-], under “hQ23 cells, thallium flux”, it took 0.024 µM to reach a half-maximal effect (EC50).

`CN1CCN(c2ncc(C(=O)NCc3ccc(C(F)(F)F)cc3)c(C3(c4ccc(Cl)cc4)CCCC3)n2)CC1` [Example 202, 5-pyrimidinecarboxamide, 4-[1-(4-chlorophenyl)cyclopentyl]-2-(4-methyl-1-piperazinyl)-N-[[4-(trifluoromethyl)phenyl]methyl]-] gave an EC50 (hQ23 cells, thallium flux) of 0.879 µM.

`CCN(CC)C(=O)c1cnc(NCCN(C)C)nc1C1(c2ccc(Cl)cc2)CCC1` [Example 53, 5-pyrimidinecarboxamide, 4-[1-(4-chlorophenyl)cyclobutyl]-2-[[2-(dimethylamino)ethyl]amino]-N,N-diethyl-] displayed an EC50 under setting [3] of 0.558 µM.

`CC1CCN(c2ncc(C(=O)NCc3cccc4ccccc34)c(C3(c4ccccc4)CCCC3)n2)CC1` [Example 104, 5-pyrimidinecarboxamide, 2-(4-methyl-1-piperidinyl)-N-(1-naphthalenylmethyl)-4-(1-phenylcyclopentyl)-] had an EC50 (hQ23 cells, thallium flux) of 0.01 µM.

In turn, `CN(C)CCNc1ncc(C(=O)NCc2ccc3c(c2)OCO3)c(C2(c3ccc(F)cc3)CCCC2)n1` [Example 239, 5-pyrimidinecarboxamide, N-(1,3-benzodioxol-5-ylmethyl)-2-[[2-(dimethylamino)ethyl]amino]-4-[1-(4-fluorophenyl)cyclopentyl]-] registered a half-maximal effective concentration (EC50) under setting [1] of 0.792 µM.

With `CN(Cc1ccccc1)C(=O)c1cnc(NC2CCCC2)nc1C1(c2ccc(Cl)cc2)CCCC1` [Example 141, 5-pyrimidinecarboxamide, 4-[1-(4-chlorophenyl)cyclopentyl]-2-(cyclopentylamino)-N-methyl-N-(phenylmethyl)-], the EC50 (hQ23 cells, thallium flux) came to 0.183 µM.

As for `CC1CCCN(c2ncc(C(=O)NC(C)c3ccc(F)cc3)c(C3(c4ccc(F)cc4)CCCC3)n2)C1` (stereo not drawn) [Example 284, 5-pyrimidinecarboxamide, 4-[1-(4-fluorophenyl)cyclopentyl]-N-[1-(4-fluorophenyl)ethyl]-2-(3-methyl-1-piperidinyl)-], the response under setting [1] was half-maximal at 0.078 µM (EC50).

Under setting [1], `CN1CCC(N(C)c2ncc(C(=O)NCc3ccc(Cl)cc3Cl)c(C3(c4ccc(F)cc4)CCCC3)n2)CC1` [Example 264, 5-pyrimidinecarboxamide, N-[(2,4-dichlorophenyl)methyl]-4-[1-(4-fluorophenyl)cyclopentyl]-2-[methyl(1-methyl-4-piperidinyl)amino]-] showed an EC50 of 0.282 µM.

`CC1CCN(c2ncc(C(=O)NCc3ccc4c(c3)OCO4)c(C3(c4ccc(Cl)cc4)CCC3)n2)CC1` [Example 58, 5-pyrimidinecarboxamide, N-(1,3-benzodioxol-5-ylmethyl)-4-[1-(4-chlorophenyl)cyclobutyl]-2-(4-methyl-1-piperidinyl)-] displayed an EC50 under setting [3] of 0.09 µM.

With `CC1CCCN(c2ncc(C(=O)NCc3ccc4c(c3)OCO4)c(C3(c4ccccc4)CCCC3)n2)C1` (stereo not drawn) [Example 92, 5-pyrimidinecarboxamide, N-(1,3-benzodioxol-5-ylmethyl)-2-(3-methyl-1-piperidinyl)-4-(1-phenylcyclopentyl)-], a half-maximal effect (hQ23 cells, thallium flux) (EC50) was put at 0.057 µM.

The compound `CCN(Cc1ccccc1)C(=O)c1cnc(NC2CCCC2)nc1C1(c2ccc(Cl)cc2)CCCC1` [Example 149, 5-pyrimidinecarboxamide, 4-[1-(4-chlorophenyl)cyclopentyl]-2-(cyclopentylamino)-N-ethyl-N-(phenylmethyl)-] came in with an EC50 (hQ23 cells, thallium flux) of 0.525 µM.

`O=C(NCc1cccc2ccccc12)c1cnc(NC2CC2)nc1C1(c2ccc(Cl)cc2)CCC1` [Example 60, 5-pyrimidinecarboxamide, 4-[1-(4-chlorophenyl)cyclobutyl]-2-(cyclopropylamino)-N-(1-naphthalenylmethyl)-]: under setting [3], the EC50 is 0.614 µM.

The compound `CC1CCN(c2ncc(C(=O)NCc3ccc(C(F)(F)F)cc3)c(C3(c4ccc(F)cc4)CCCC3)n2)CC1` [Example 288, 5-pyrimidinecarboxamide, 4-[1-(4-fluorophenyl)cyclopentyl]-2-(4-methyl-1-piperidinyl)-N-[[4-(trifluoromethyl)phenyl]methyl]-] had an EC50 under setting [1] of 0.075 µM.

Under setting [2], `CC1CCN(c2ncc(C(=O)NCc3ccc(F)cc3F)c(C3(c4ccccc4)CC3)n2)CC1` [Example 43, 5-pyrimidinecarboxamide, N-[(2,4-difluorophenyl)methyl]-2-(4-methyl-1-piperidinyl)-4-(1-phenylcyclopropyl)-] showed an EC50 of 0.919 µM.

On to `CC1CCCN(c2ncc(C(=O)NCc3cc(F)cc(C(F)(F)F)c3)c(C3(c4ccccc4)CC3)n2)C1` (stereo not drawn) [Example 47, 5-pyrimidinecarboxamide, N-[[3-fluoro-5-(trifluoromethyl)phenyl]methyl]-2-(3-methyl-1-piperidinyl)-4-(1-phenylcyclopropyl)-], for which a half-maximal effect under setting [2] (EC50) was put at 0.041 µM.

For the compound `CN1CCN(c2ncc(C(=O)NCc3ccc(F)cc3F)c(C3(c4ccc(F)cc4)CCCC3)n2)CC1` [Example 268, 5-pyrimidinecarboxamide, N-[(2,4-difluorophenyl)methyl]-4-[1-(4-fluorophenyl)cyclopentyl]-2-(4-methyl-1-piperazinyl)-], the EC50 under setting [1] was determined as 0.634 µM.

In the case of `O=C(NCc1ccc(Cl)cc1Cl)c1cnc(NC2CCCC2)nc1C1(c2ccccc2)CCCC1` [Example 115, 5-pyrimidinecarboxamide, 2-(cyclopentylamino)-N-[(2,4-dichlorophenyl)methyl]-4-(1-phenylcyclopentyl)-], the EC50 (hQ23 cells, thallium flux) amounted to 0.136 µM.

In the case of `CN1CCC(N(C)c2ncc(C(=O)NCc3cc(F)cc(C(F)(F)F)c3)c(C3(c4ccc(Cl)cc4)CCCC3)n2)CC1` [Example 194, 5-pyrimidinecarboxamide, 4-[1-(4-chlorophenyl)cyclopentyl]-N-[[3-fluoro-5-(trifluoromethyl)phenyl]methyl]-2-[methyl(1-methyl-4-piperidinyl)amino]-], the EC50 (hQ23 cells, thallium flux) worked out at 0.13 µM.

(Values after US7091202B2, “4-arylspirocycloalkyl-2-aminopyrimidine carboxamide KCNQ potassium channel modulators” (Bristol-Myers Squibb Company, priority 2004, dated 2006).)
